# Literature values, collected in publication PMC4191344, “Identification and characterization of Aβ peptide interactors in Alzheimer’s disease by structural approaches” (Frontiers in Aging Neuroscience, 2014).
# System: Aβ
# Conditions: in vitro; ref Pollio et al., 2008
# Source text: Early literature was somewhat conflicting explicating the role of the EP24.15 metalloenzyme in the etiology of AD. This enzyme was originally erroneously thought to be the β-secretase activity initiating the processing of the APP into Aβ (Papastoitsis et al., [1994]) prior to the discovery of the beta amyloid cleaving enzyme-1 (BACE-1). The EP24.15 gene is located at a chromosomal locus that is close to a region involved with early onset AD (Meckelein et al., [1996]). […] In older transgenic animals, EP24.15 protein was increased in the hippocampus, supportive of a role in Aβ clearance though there was no attributable mechanism.
substance,measurement,value
"EP24.15: soluble, 77 kD metalloendopeptidase in the family of zinc metallopeptidases",inhibition of Aβ toxicity by EP24.15 expression,inhibit the toxicity of Aβ in vitro
